Usually IC50 stands for the concentration at which inhibition is half-maximal.

IC50 data for 10 molecules are collected here from US12281057B2 (VERTEX PHARMACEUTICALS INCORPORATED, priority 2017, dated 2025).

Chain of truncated form of human NaV 1.8 with full channel activity (Q9Y5Y9 126-1722 limits assumed): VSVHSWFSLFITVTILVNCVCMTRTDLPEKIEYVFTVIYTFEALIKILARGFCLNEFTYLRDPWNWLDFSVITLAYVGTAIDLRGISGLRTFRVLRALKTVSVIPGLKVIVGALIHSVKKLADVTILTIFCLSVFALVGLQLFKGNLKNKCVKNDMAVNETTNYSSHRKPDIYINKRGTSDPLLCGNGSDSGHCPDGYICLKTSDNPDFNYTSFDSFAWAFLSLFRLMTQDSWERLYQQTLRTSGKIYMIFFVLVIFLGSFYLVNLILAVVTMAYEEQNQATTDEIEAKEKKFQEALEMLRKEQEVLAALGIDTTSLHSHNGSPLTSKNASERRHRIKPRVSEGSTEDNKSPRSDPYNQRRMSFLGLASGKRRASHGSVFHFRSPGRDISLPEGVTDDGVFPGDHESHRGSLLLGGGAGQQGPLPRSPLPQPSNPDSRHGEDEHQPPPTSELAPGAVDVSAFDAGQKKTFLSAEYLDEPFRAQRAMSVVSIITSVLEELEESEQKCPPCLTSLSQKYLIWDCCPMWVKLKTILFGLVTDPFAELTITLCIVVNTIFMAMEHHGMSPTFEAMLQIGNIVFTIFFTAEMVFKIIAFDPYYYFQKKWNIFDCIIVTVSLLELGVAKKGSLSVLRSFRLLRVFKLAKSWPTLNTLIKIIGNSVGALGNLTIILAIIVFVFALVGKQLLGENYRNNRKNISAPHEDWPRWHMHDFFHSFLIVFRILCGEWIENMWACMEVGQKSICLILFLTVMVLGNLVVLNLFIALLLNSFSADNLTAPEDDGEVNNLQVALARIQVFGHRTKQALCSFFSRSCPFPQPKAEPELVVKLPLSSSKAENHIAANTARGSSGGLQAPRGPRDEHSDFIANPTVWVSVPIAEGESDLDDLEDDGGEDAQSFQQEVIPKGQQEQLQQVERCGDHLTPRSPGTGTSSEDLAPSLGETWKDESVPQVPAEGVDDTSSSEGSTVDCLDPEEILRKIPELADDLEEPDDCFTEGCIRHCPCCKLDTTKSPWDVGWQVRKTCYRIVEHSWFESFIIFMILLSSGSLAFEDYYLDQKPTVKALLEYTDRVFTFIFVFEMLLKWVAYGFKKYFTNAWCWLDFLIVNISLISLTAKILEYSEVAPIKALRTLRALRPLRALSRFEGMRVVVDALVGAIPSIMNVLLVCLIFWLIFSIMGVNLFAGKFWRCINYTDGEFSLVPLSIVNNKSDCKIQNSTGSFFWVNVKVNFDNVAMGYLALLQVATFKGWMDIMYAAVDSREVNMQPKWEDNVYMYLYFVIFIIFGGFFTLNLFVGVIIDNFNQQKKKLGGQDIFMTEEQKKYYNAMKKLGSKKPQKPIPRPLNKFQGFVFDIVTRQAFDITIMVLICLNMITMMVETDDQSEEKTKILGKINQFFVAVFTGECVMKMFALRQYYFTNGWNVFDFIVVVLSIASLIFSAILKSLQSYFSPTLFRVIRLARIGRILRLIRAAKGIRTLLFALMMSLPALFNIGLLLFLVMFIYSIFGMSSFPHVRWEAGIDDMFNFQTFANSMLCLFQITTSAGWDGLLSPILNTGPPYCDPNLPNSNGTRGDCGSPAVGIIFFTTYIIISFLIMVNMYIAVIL

The assay has as its target truncated form of human NaV 1.8 with full channel activity (Homo sapiens, UniProt Q9Y5Y9). In words: E-VIPR Assay Method B for detecting and measuring Nav inhibition (HEK cells, membrane potential FRET dyes, electrical stimulation). The class given is cell-based. The following applies: HEK cells expressing human NaV 1.8, Table 20B, read-out: Nav 1.8 MedChem Optical Assay EVIPR Assay Method B HS IC50. The source says:
[formula] where X is the ratio response of the test compound. […] E-VIPR Assay Method B for Detecting and Measuring Nav Inhibition Properties Sodium ion channels are voltage-dependent proteins that can be activated by inducing membrane voltage changes by applying electric fields. The electrical stimulation instrument and methods of use, referred to as E-VIPR, are described in International Publication No. WO 2002/008748 A3 and C.-J. Huang et al. Characterization of voltage-gated sodium channel blockers by electrical stimulation and fluorescence detection of membrane potential, 24 Nature Biotech. 439-46 (2006), both of which are incorporated by reference in their entirety. The instrument comprises a microtiter plate handler, an optical system for exciting the coumarin dye while simultaneously recording the coumarin and oxonol emissions, a waveform generator, a current- or voltage-controlled amplifier, and parallel electrode pairs that are inserted into assay plate wells. Under integrated computer control, this instrument passes user-programmed electrical stimulus protocols to cells within the wells of the microtiter plate. […] Sigma #F4135), 1% NEAA (Non-Essential Amino Acids, Life Tech #11140), 1% HEPES (Life Tech #15630), 1% Pen-Strep (Penicillin-Streptomycin; […] Cells were expanded in vented cap flasks, with 95% humidity and 5% CO2. Reagents and Stock Solutions: • 100 mg/mL Pluronic F-127 (Sigma #P2443), in dry DMSO • Compound Plates: […] 5% KIR 2.1 Bacmam virus (produced in-house), prepared as described in Section 3.3 of J. A. Fornwald et al., Gene Expression in Mammalian Cells Using BacMam, a Modified Baculovirus System, 1350 Methods in Molecular Biology 95-116 (2016), the entire contents of which are incorporated by reference. • 5 mM DiSBAC6(3) (a voltage sensitive oxonol acceptor) (Aurora #00-100-010) in dry DMSO • 5 mM CC2-DMPE (a membrane-bound coumarin phospholipid FRET donor) (Aurora #00-100-008) in dry DMSO • 89 mM VABSC-1 in H2O. […] The solution was made by adding 10% Pluronic F127 stock equal to combined volumes of CC2-DMPE and DiSBAC6(3). The order of preparation was first mix Pluronic and CC2-DMPE, then add DiSBAC6(3), then while vortexing add Bath1/β-Cyclodextrin. […] Assay Protocol: […] Final DMSO concentration for all wells in the assay was 0.625% (0.75% DMSO was supplemented to the Compound Loading Buffer for a final DMSO concentration of 0.625%). 2) Hexyl Dye Solution was prepared. 3) Cell plates were prepared. On the day of the assay, the media was aspirated, and the cells were washed three times with 80 μL of Bath-1 buffer, maintaining 25 μL residual volume in each well. 4) 25 μL per well of Hexyl Dye Solution was dispensed into the cell plates. The cells were incubated for 20 minutes at room temp or ambient conditions in darkness. 5) 80 μL per well of Compound Loading Buffer was dispensed into compound plates. […] The mixture was incubated for 30 minutes at room temp/ambient conditions. […] A pre-stimulus recording was performed for 0.5 seconds to obtain the un-stimulated intensities baseline. The stimulatory waveform was followed by 0.5 seconds of post-stimulation recording to examine the relaxation to the resting state. Data Analysis: Data were analyzed and reported as normalized ratios of emission intensities measured in the 460 nm and 580 nm channels. The response as a function of time was reported as the ratios obtained using the following formula: [formula] The data were further reduced by calculating the initial (Ri) and final (Rf) ratios. These were the average ratio values during part or all of the pre-stimulation period and during sample points during the stimulation period. The fluorescence ratio (Rf/Ri) was then calculated and reported as a function of time. Control responses were obtained by performing assays in the presence of the positive control, and in the absence of pharmacological agents (DMSO vehicle negative control). Responses to the negative (N) and positive (P) controls were calculated as above. […]
Consider `COc1cc(Cl)ccc1Oc1cc(C(F)(F)C(F)(F)F)ccc1C(=O)Nc1cccc(C(N)=O)c1` [Compound 247, N-(3-carbamoylphenyl)-2-(4-chloro-2-methoxyphenoxy)-4-(1,1,2,2,2-pentafluoroethyl)benzamide], for which the IC50 came to 33 nM.

For the molecule `NC(=O)c1cccc(NC(=O)c2cc(C(F)(F)F)ccc2Oc2ccc(F)cc2)c1` [Compound 276, N-(3-carbamoylphenyl)-2-(4-fluorophenoxy)-5-(trifluoromethyl)benzamide], the IC50 is 98 nM.

Regarding `COc1ccc(Oc2cc(C(F)(F)C(F)(F)F)ccc2C(=O)Nc2cccc(C(N)=O)c2)c(OC)c1` [Compound 252, N-(3-carbamoylphenyl)-2-(2,4-dimethoxyphenoxy)-4-(1,1,2,2,2-pentafluoroethyl)benzamide], the IC50 is 36 nM.

As for `Cc1cc(F)ccc1Oc1cccc(C(F)(F)F)c1C(=O)Nc1cccc(C(N)=O)c1` [Compound 258, N-(3-carbamoylphenyl)-2-(4-fluoro-2-methylphenoxy)-6-(trifluoromethyl)benzamide], the IC50 came to 85 nM.

Consider `NC(=O)c1ccc(NC(=O)c2c(Oc3ccc(F)cc3Cl)cccc2C(F)(F)F)cn1` [Compound 256, 5-[[2-(2-chloro-4-fluoro-phenoxy)-6-(trifluoromethyl)benzoyl]amino]pyridine-2-carboxamide], for which the IC50 is 550 nM.

As to `Cc1cc(F)ccc1Oc1ccc(C(F)(F)F)cc1C(=O)Nc1ccc(C(N)=O)cc1` [Compound 297], the IC50 was 40 nM.

Consider `COc1ccc(NC(=O)c2cc(C(F)(F)F)ccc2Oc2ccc(F)cc2C)cc1C(N)=O` [Compound 292, N-(3-carbamoyl-4-methoxyphenyl)-2-(4-fluoro-2-methylphenoxy)-5-(trifluoromethyl)benzamide], for which the IC50 amounted to 270 nM.

In the case of `NC(=O)c1cccc(NC(=O)c2cc(C(F)(F)F)ccc2Oc2ccccc2)c1` [Compound 277, N-(3-carbamoylphenyl)-2-phenoxy-5-(trifluoromethyl)benzamide], the IC50 came out at 250 nM.

On to `NC(=O)c1cccc(NC(=O)c2cc(Cl)c(Cl)cc2Oc2ccc(OC(F)(F)F)cc2)c1` [Compound 272, N-(3-carbamoylphenyl)-4,5-dichloro-2-[4-(trifluoromethoxy)phenoxy]benzamide], for which the IC50 came to 8 nM.

On to `COc1cc(F)ccc1Oc1cc(C(F)(F)F)ccc1C(=O)Nc1cccc(C(N)=O)c1` [Compound 298, N-(3-Carbamoylphenyl)-2-[4-fluoro-2-(methoxy)phenoxy]-4-(trifluoromethyl)benzamide], for which the IC50 amounted to 14 nM.
